{"source": "paper PMC6689897", "about": "“Drugging an undruggable pocket on KRAS” (Proceedings of the National Academy of Sciences of the …, 2019)", "tested_on": "NCI-H358 cells", "assay": "2D proliferation assay", "type": "cell-based, human", "conditions": "standard 2D culture conditions", "protocol": "263 (ATCC® CCL-224™; grown in RPMI 10% FCS) and SK-MEL-28 (ATCC® HTB-\n264 72™, grown in EMEM 10% FCS). Cell cultures were incubated at 37 °C and 5% CO2 in\n265 a humidified atmosphere, with medium change or subcultivation 2-3 times a week.\n269 Cells were lysed in 1x lysis buffer (Cell Signaling #9803) and protein concentration\n270 normalized to 10µg/µL. Proteins were separated by SDS-Page and transferred to\n271 Nitrocellulose membranes (BioRad) according to standard protocols. Membranes were\n273 (Milipore #06-182) and Tubulin (Cell Signaling #2144) in 5% BSA in TBST blocking\n274 buffer. After primary antibody incubation membranes were incubated with anti-rabbit\n275 IgG secondary antibody (Dako #P0448) and detected with ECL (GE Healthcare Life\n278 Compound treatment of cells\n279 Synthesized or purchased (ARS 1620) compounds were dissolved in 100% DMSO and\n280 stored at a concentration of 10mM at -20°C. Compounds were either serially diluted in\n281 medium or directly added to reach the intended final concentration. DMSO was added\n282 to control reactions as reference to keep the final DMSO concentration in all samples\n285 2D proliferation assay: […]\nQuantification of living cells […]\n291 manufacturer’s recommendation. Luminescence was read in a 2030 VICTOR X5 (Perkin […]\n305 were trypsinized, counted and plated in 60 µL culture medium containing 2% FCS […]"}
{"smiles": "Cn1cnc(Cn2ccc3ccc(CNCc4[nH]c5ccccc5c4[C@H]4NC(=O)c5ccc(O)cc54)cc32)c1", "note": "[Compound 1]", "values": [{"measurement": "antiproliferative effect", "result": "No antiproliferative effect"}]}
